Laboratory results as given in patent US8299096B2, “Method for treating pulmonary diseases using rho kinase inhibitor compounds” (priority 2008, dated 2012).
Entries after “also recorded” stand apart in the source; their conditions may differ.

What was measured:
[1] = test system: A-10 rat thoracic aorta cells; assay: PDGF-stimulated smooth muscle cell proliferation assay (BrdU); assay type: cell-based; settings: 10 ng/mL PDGF, A-10 cells
Description: Effects on cell proliferation were measured using a bromodeoxyuridine (BrdU) incorporation assay. […] Serum free media containing 0.1% BSA was added to the cells. 24 hours later the media was removed and replaced with warmed serum free media. […] Proliferation was then monitored using the BrdU Cell Proliferation Assay, HTS (Calbiochem cat. #HTS01). BrdU was allowed to incorporate into cells for 24 hours prior to the addition of fixative/denaturing solution and the fluorometric detection of incorporated BrdU using a BrdU antibody as per manufacturer's directions. Data are reported as a percent of the PDGF-stimulated BrdU incorporation.

[2] = test system: ovalbumin-sensitized mice; assay: Bronchodilator assay in ovalbumin-sensitized mouse model of asthma (Penh); assay type: in vivo; settings: for Reduction in airway hyperresponsivness: oral doses
Description: Male BALB/c mice were ordered from Charles River Laboratories (Raleigh, N.C.). The animals were approximately 19 to 21 grams at time of receipt. Upon arrival, the animals were randomized into groups of five males per cage and assigned to a dosing group. Animals were quarantined for 7 days under test conditions. They were observed daily for general health status and ability to adapt to the water bottles.
Animals were sensitized on day 0 and 14 of study by an intraperitoneal injection with 20 μg of ovalbumin (ova) and 2.0 mg aluminum hydroxide (alum) which initiates the development of a specific T-helper (Th) cells type 2 resulting in asthmatic animals. One group of animals received an injection of saline to use as non-asthmatic control animals. All animals were challenged with aerosolized 1% ova once daily for 25 minutes on days 28, 29, and 30 (Zosky, et al. Respiratory Research, 2004; 5:15). Aerosol challenge consists of using an Aerogen Aeroneb nebulizer and controller with a particle size of 4-6 μm mass median aerodynamic diameter (MMAD) with a distribution of 400 μl per minute. This aerosol challenge is necessary to target the Th2-driven allergic inflammation in the lower airways.
The test compounds and the control vehicle were administered to animals on the day of airway hyperreactivity evaluation 30 minutes to 1 hour before the evaluation to determine the bronchodilator effects of the compounds according to the bronchodilator dosing paradigm (FIG. 3A). Compounds were administered p.o. (orally), i.p. (intraperitoneally) at 15 μMol/kg unless otherwise noted (Table 4). Alternatively, compounds were administered i.t. (intratracheally) at varying doses as shown (FIG. 3B). On day 32 of the experiment, airway hyperreactivity was evaluated by placing conscious, unrestrained animals in a whole body plethysmometer (Buxco Wilmington, N.C.) and exposing them to escalating doses of nebulized methacholine, a known bronchial constrictor which acts through the muscarinic receptors of the lungs, (doses: […]-50 mg/ml). Exposure to the methacholine doses consisted of a 3 minute period during which a nebulizer was aerosolizing the methacholine and an additional 3 minute period following the cessation of nebulization. Over this 6 minute period, the plethysmometer monitors and generates numerical values for all parameters of the breath pattern. Enhanced pause (Penh), a unitless index of airway hyperreactivity, is derived from the expiratory side of the respiratory waveform measured via the plethysmograph and is used as an indirect measure of airway resistance and hyperreactivity. […] Following the methacholine dose response, all animals were anesthetized, bled and euthanized.
Within each experiment, a mouse was given a single compound and exposed to increasing doses of methacholine [0 (baseline), 0.375, 0.75, 1.5, 3, 6, 12, 25, 50 mg/ml]. The Penh value at each of the dose levels of methacholine represents the 6-minute average response. Change from baseline (CFB) in Penh was calculated at each methacholine dose and the area under the curve (AUC) for these CFB values was calculated using the trapezoidal rule. This same approach was applied for each mouse across multiple experiments.
For statistical analyses, a linear mixed-effects model where the response was the log 10 transformed value of AUC described above was used. Data from equal experimental conditions across experiments performed on different days were pooled for statistical analysis and data reporting. The various compounds were compared adjusting for the log 10-transformed baseline value of Penh and the chamber (1 of 10) of the plethysmometer each mouse was contained in during an experiment. A random intercept for each experiment was assumed to account for possible similarities of the results obtained from a given experiment (i.e., as a “blocking effect”).
For Table 4 and Table 5, Penh values are reported as log 10 transformed AUC values. […]

[3] = test system: ovalbumin-sensitized mice; assay: Anti-inflammatory assay in ovalbumin-sensitized mouse model of asthma (BALF cells and cytokines); assay type: in vivo
Source text: Mouse model of asthma via ovalbumin sensitization was created as described in Example 5. The anti-inflammatory dosing paradigm (FIG. 4) was utilized to evaluate the anti-inflammatory effects of experimental compounds. The anti-inflammatory dosing paradigm consists of dosing the animals once a day starting on day 27 and finishing on either day 30 or 31 (1 hr prior to the aerosolized ovalbumin challenges on days 28 to 30) but not on day 32 when hyper-reactivity evaluation occurs.
Bronchoalveolar lavage fluid (BALF) was collected by infusing 3.0 ml of saline with 10% fetal calf serum into the lungs via the trachea and then withdrawing the fluid. The total amount of cells/ml of BALF fluid was determined via manual cell count on hemocytometer. The BALF was centrifuged, supernatant removed and analyzed for cytokine concentrations as described below, and cell pellet reconstituted in 500 μL of fluid. Cytospin slides were prepared from the cell pellet using 100 μL of fluid and spinning samples for 5 minutes at 5000 rpms in a cytospin centrifuge. Following Hema3 stain, relative percentages of individual leukocytes were determined on a 200 cell count for each sample. The final concentration of individual leukocyte cell types per ml of BALF was determined by multiplication of the relative percentage of individual leukocytes with the total amount of cells/ml of BALF fluid.
The concentrations of cytokines in the BALF samples were determined using commercially available Bio-plex kits (Bio-Rad) for the detection of mouse IL-5, IL-13, and Eotaxin. The analysis of cytokine levels was measured using the Bio-Plex 200 (Bio-Rad) system according to the manufacturer's instructions.

[4] = test system: ovalbumin-sensitized mice; assay: Prevention of airway hyperreactivity development, anti-inflammatory dosing paradigm (Penh); assay type: in vivo, mouse; settings: oral, 15 μMol/kg once a day during days 27 to 31
[5] = test system: human eosinophils; assay: Human eosinophil chemotaxis (eotaxin-induced); assay type: cell-based; settings: 1 nM eotaxin, one hour
Source text: Human Eosinophil Isolation: Peripheral blood from healthy human volunteers was collected and the PMNs separated via Ficoll-paque density centrifugation followed by hypotonic lysis of the red blood cells. Subsequently, the human eosinophils were isolated from the cell suspension via StemCell Technologies Human Eosinophil Enrichment kit (Cat. No 19256) according to the manufacturer's recommendations. Briefly, unwanted cells were specifically labeled with dextran-coated magnetic nanoparticles using bispecific Tetrameric Antibody Complexes (TAC) directed against cell surface antigens on human blood cells: […] The unwanted cells are then separated from the unlabelled eosinophils using the EasySep® magnetic isolation procedure. In Vitro Chemotaxis: […]

[6] = test system: murine eosinophils; assay: Murine eosinophil chemotaxis (eotaxin-induced); assay type: cell-based, mouse; settings: 10 nM eotaxin, one hour
Description: Mouse Eosinophil Isolation: Bronchoalveolar lavage was collected from ovalbumin sensitized and challenged mice in a volume of 2.5 mL lavage buffer. The lavage buffer was 0.9% saline with 10% fetal bovine serum. The pooled lavages were maintained on ice until use. The murine eosinophils were isolated using MACS cell separation (Miltenyi Biotech) by depletion of B cells and T cells by positive selection following incubation with antibody conjugated magnetic beads specific for CD45-R (B220) and CD90 (Thy 1.2), which bind B cells and T cells, respectively.
In Vitro Chemotaxis: Eosinophil chemotaxis was assessed using a modified Boyden Chamber (Neuroprobe, 96-well) with a 5 μm pore membrane. The ability of the tested compounds to block chemotaxis induced by a 10 nM eotaxin challenge (mouse) or 1 nM eotaxin challenge (human) during one hour incubation at 37° C. with 5% CO2 was assessed. Chemotaxis was quantified via microscopy by counting the number of migrated cells in at least 3 view fields per treatment.

[7] = Compound plasma concentrations in mice at 15 min post administration; assay type: in vivo, mouse; settings: mouse plasma, 15 minutes, oral
Description: Additionally, compound concentrations were determined in the plasma and lungs of male, ovalbumin-sensitized, Balb/c mice from a murine model of asthma. Test compounds were formulated in water or 1% polysorbate 80 and dosed at 15 μmol/kg for intraperitoneal (IP) or oral (PO) administration or formulated for intratracheal (IT) administration and dosed at 5 μmol/kg, which directly targets the lungs. Following completion of the in vivo study, mice were euthanized and blood and plasma collected approximately 2.5-3 hours post administration of test compound for bronchodialator (BD) studies and 24 hours post administration for anti-inflamatory (AI) studies. Lungs were homogenized in Matrix A lysing tubes using a FastPrep 24 tissue and cell homogenizer (MP Biomedicals, Solon, Ohio). Both plasma samples and lung extracts were assayed for compound concentrations using an on-line, solid phase extraction LC/MS/MS system.

[8] = test system: rat aorta; assay: Aortal relaxation assay, norepinephrine precontracted; settings: 100 nM norepinephrine, 100 μM compound
Description: The effects of compounds to induce relaxation of pre-contracted rat pulmonary artery and rat aorta were determined. Male Sprague-Dawley rats weighing 301-325 gm were sacrificed by asphyxiation in a CO2 chamber. Pulmonary artery or aorta were excised, cleaned of connective tissue and cut into cylindrical segments of 2-3 mm length. The preparations were mounted in a tissue bath by tying two threads of surgical silk through the lumen of the vessel. One silk was used to anchor the tissue to a metal wire in the bath and the other silk was connected to a force transducer. Preparations were mounted in 5 ml water-jacketed organ baths (Radnoti Glass Technology) filled with Krebs buffer (95 mM NaCl, 5 mM KCl, 2.6 mM CaCl2, 1.2 mM MgSO4, 24.9 mM NaHCO3, 1.2 mM KH2PO4, 10 mM glucose) maintained at 37° C. and gassed with 95% O2 and 5% CO2. Contractile tensions were measured using an isometric force transducer (Grass Instruments) and signals were analyzed using specialized software (Chart v5.5, ADInstruments). […] For pulmonary artery, compounds were added cumulatively to the bath every 30 minutes and reductions in tension were recorded. […] For aorta, a single dose of compound was added and reductions in tension were recorded.

[9] = test system: rat tracheal rings pretreated with IL-1β and TNF-α or vehicle; assay: Effect of inflammatory cytokines on tracheal relaxation; settings: 300 nM carbachol
Description: Male Sprague-Dawley rats weighing 301-325 gm were sacrificed by asphyxiation in a CO2 chamber. Trachea were excised, cleaned of connective tissue and cut into cylindrical segments of 2-3 mm length. Tissues were treated for 18 hours at 37° C. in F12 media with penicillin-streptomycin and 0.1% BSA alone or with 10 ng/ml IL-1β and 100 ng/ml TNF-α. Tissues were then washed free of cytokines with Krebs buffer. Contractile tensions were measured using an isometric force transducer (Grass Instruments) as described for Example 3 and signals were analyzed using specialized software (Chart v5.5, ADInstruments). Tissues were treated with 300 nM carbachol for 10 to 15 minutes to induce a contractile response. Test Compounds were added cumulatively to the bath every 30 minutes and reductions in tension were recorded. Basal tension was subtracted from all values and data were reported as a percentage of the maximal carbachol-induced contraction. Data were fit to the Hill equation using GraphPad Prism v5 software.

[10] = Rat oral pharmacokinetics (plasma); assay type: in vivo
Description: Plasma (EDTA K2 anticoagulant) was collected from male, cannulated, CD Sprague Dawley rats to determine the pharmacokinetics of formulations containing compound inhibitors of Rho kinase. Each animal was dosed orally with a 4 ml/kg solution or suspension of each test compound in 10 mM acetate buffered saline, pH 4.5 at a final concentration range of 20-30 μmol/kg. Blood was collected at 0.25, 0.5, 1, 2, 4, 6, 8, and 24 hours. Plasma samples were assayed for the concentration of the test compound using an on-line, solid phase extraction LC/MS/MS analysis system.
Samples were analyzed on a QSTAR Elite, hybrid quadrupole time-of-flight mass spectrometer (Applied Biosystems, Framingham, Mass.) coupled with a Symbiosis Pharma integrated, on-line SPE-HPLC system (Spark Holland Inc., Plainsboro, N.J.). Analyst QS 2.0 software was used for instrument control, data acquisition and processing. […] Mobile Phase A consisted of 0.1% ammonium hydroxide in water and Mobile Phase B consisted of 0.1% formic acid in acetonitrile. Pharmacokinetic analyses were performed using WinNonlin software version 5.2 (Pharsight Corporation, Mountain View, Calif.).

[11] = test system: LPS-challenged mice; assay: LPS-induced neutrophilia and cytokine production assay; assay type: in vivo, mouse
Description: Male BALB/c mice, approximately 19 to 21 grams, were ordered from Charles River Laboratories (Raleigh, N.C.). All animals were challenged with aerosolized LPS (10 μg/ml) for 25 minutes on study day 0. LPS aerosol was generated using an Aerogen Aeroneb nebulizer and controller providing a flow of 400 μl/min and a particle size of 2-4 μm MMAD. Rolipram was administered i.p at 20 mg/kg. […] Four hours following LPS challenge, BALF was collected using a total of 3 ml of 0.9% sodium chloride containing 10% fetal calf serum. Total cell counts were determined using the Coulter Counter. For differential evaluations, BALF was centrifuged and cytospin slides prepared and stained with Hema3 stain. Manual leukocyte counts were then completed on 200 cells. The final concentration of individual leukocyte cell types per ml of BALF was determined by multiplication of the relative percentage of individual leukocytes with the total amount of cells/ml of BALF fluid. The concentration of IL-1β in the BALF samples was determined using commercially available Bio-plex kits (Bio-Rad). The analysis of cytokine levels was measured using the Bio-Plex 200 (Bio-Rad) system according to the manufacturer's instructions.

[12] = test system: rat tracheal rings; assay: Tracheal relaxation assay, carbachol precontracted rings; settings: Rattus norvegicus, read-out: IC50 Avg, tracheal ring relaxation
Description: Trachea were excised, cleaned of connective tissue and cut into cylindrical segments of 2-3 mm length. Two stainless steel wires were guided through the lumen of the tracheal ring. One wire was fixed in the tissue bath and the other was connected to a force transducer via surgical silk. […] Indomethacin (1 μM), a cyclooxygenase inhibitor, was added to the Krebs buffer and was present throughout the experiments. Contractile tensions were measured using an isometric force transducer (Grass Instruments) and signals were analyzed using specialized software (Chart v5.5, ADInstruments). The preparations were allowed to equilibrate at a resting tension of 0.3 to 0.5 gm prior to two challenges with 60 mM KCl to assess tissue viability. After washing, tissues were treated with 1 μM carbachol for 10 to 15 minutes to induce a contractile response. Test Compounds were added cumulatively to the bath every 30 minutes and reductions in tension were recorded. Basal tension was subtracted from all values and data were reported as a percentage of the maximal carbachol-induced contraction. Data were fit to the Hill equation using GraphPad Prism v5 software.

[13] = test system: human neutrophils; assay: Human neutrophil chemotaxis (fMLP-induced); assay type: cell-based; settings: 1 h, read-out: Chemotaxis Avg IC50
Description: Peripheral blood from healthy human volunteers was collected and the neutrophils were isolated by Ficoll-paque density centrifugation followed by dextran sedimentation and hypotonic lysis of the red blood cells. Neutrophil chemotaxis was assessed using a modified Boyden Chamber (Neuroprobe, 96-well) with a 3 μm pore polycarbonate membrane. The ability of the tested compounds to block chemotaxis induced by a 1 μM fMLP challenge during a one hour incubation at 37° C. with 5% CO2 was assessed in a dose response manner.

[14] = 15 μmol/kg/oral on days 27 to 31
[15] = rat, oral, 20-30 μmol/kg, plasma, mean n = 3

SMILES: CSc1ccc(CN2CC[C@@H](Nc3cccc4cnccc34)C2)cc1 [Compound 2.026]
- Percent of PDGF Induced Proliferation at 1 μM Avg ([1]; 1 μM): 74.5%
- Percent of PDGF Induced Proliferation at 10 μM Avg ([1]; 10 μM): 52.0%

SMILES: CS(=O)(=O)Nc1cccc(CN2CC[C@@H](Nc3cccc4cnccc34)C2)c1 [Compound 2.038]
- Reduction in airway hyperresponsivness [2]: statistically significant reduction
- Eotaxin level in BALF [3, 14]: reduced levels
- IL-5 level in BALF [3, 14]: reduced levels
- IL-13 level in BALF [3, 14]: reduced levels
- Airway eosinophil infiltration (eosinophils per ml of BALF) ([3]; dosed orally to day 31, anti-inflammatory dosing paradigm): reduced
- Prevention of airway hyperreactivity to metacholine on Day 32 [4]: prevention of airway hyperreactivity
- Eotaxin-induced chemotactic response of human eosinophils [5]: inhibited
- Eotaxin-induced chemotactic response of murine eosinophils [6]: inhibited
- Detection in mouse plasma 15 minutes after oral dosing [7]: readily detectable

SMILES: OCCOc1cccc(CN2CC[C@@H](Nc3cccc4cnccc34)C2)c1 [Compound 2.039]
- Norepinephrine-induced tension of aortal ring [8]: fully reversed

SMILES: CS(=O)(=O)Nc1cccc(CN2CCC[C@H](Nc3ccc4[nH]ncc4c3)C2)c1 [Compound 1.091]
- Potency in cytokine-pretreated versus vehicle-pretreated tissues [9]: slightly more potent in cytokine-pretreated tissues
- Relaxation of tracheal rings from vehicle-pretreated and cytokine-pretreated tissues ([9]; 10 ng/ml IL-1β and 100 ng/ml TNF-α, 18 hours): fully efficacious
- Reduction in airway hyperresponsiveness ([2]; i.p. route of administration, compared to oral dosing): enhanced reduction
- Bronchodilatory response ([2]; intratracheal administration): robust bronchodilatory response
- Reduction in airway hyperresponsivness [2]: did not yield a significant reduction
- Eosinophils in BALF ([3]; dosed i.t. to day 30, anti-inflammatory dosing paradigm): reduction of eosinophils
- Oral bioavailability ([10]; oral dosing): poor
- AUC (0-last) [10, 15]: below the level of quantification
- Cmax [10, 15]: below the level of quantification
- Efficacy on neutrophilia compared to rolipram dosed i.p. ([11]; dosed intratracheally): similar
- IL-1β levels in BALF ([11]; intratracheal administration, LPS-challenged mice): reduction
- LPS-induced pulmonary neutrophilia (BALF) ([11]; intratracheal dosing one hour prior to LPS challenge, mice): significant reduction; also recorded: dose-dependent inhibition

SMILES: Cc1cncc2cccc(S(=O)(=O)N3CCCNC[C@@H]3C)c12 [Compound H-1152, 4-methyl-5-(2-methyl-[1,4]diazepan-1-sulfonyl)isoquinoline]
- IC50 [12]: 0.164 µM
- IC50 [13]: 4.35 µM
